From article PMC9025810, “Interaction of Antifungal Drugs with CYP3A- and OATP1B-Mediated Venetoclax Elimination” (Pharmaceutics, 2022)
Read-outs that look alike come from different tables or passages of the source.

Key:
OATP1B1 [1] = target: T1, OATP1B1 (Homo sapiens, UniProt Q9Y6L6); assay: Radioactive uptake and membrane/intracellular fractionation in cells overexpressing OATP1B1 or vector; format: cell-based; design: expressed in transfected cells
T1 sequence (Q9Y6L6 1-691): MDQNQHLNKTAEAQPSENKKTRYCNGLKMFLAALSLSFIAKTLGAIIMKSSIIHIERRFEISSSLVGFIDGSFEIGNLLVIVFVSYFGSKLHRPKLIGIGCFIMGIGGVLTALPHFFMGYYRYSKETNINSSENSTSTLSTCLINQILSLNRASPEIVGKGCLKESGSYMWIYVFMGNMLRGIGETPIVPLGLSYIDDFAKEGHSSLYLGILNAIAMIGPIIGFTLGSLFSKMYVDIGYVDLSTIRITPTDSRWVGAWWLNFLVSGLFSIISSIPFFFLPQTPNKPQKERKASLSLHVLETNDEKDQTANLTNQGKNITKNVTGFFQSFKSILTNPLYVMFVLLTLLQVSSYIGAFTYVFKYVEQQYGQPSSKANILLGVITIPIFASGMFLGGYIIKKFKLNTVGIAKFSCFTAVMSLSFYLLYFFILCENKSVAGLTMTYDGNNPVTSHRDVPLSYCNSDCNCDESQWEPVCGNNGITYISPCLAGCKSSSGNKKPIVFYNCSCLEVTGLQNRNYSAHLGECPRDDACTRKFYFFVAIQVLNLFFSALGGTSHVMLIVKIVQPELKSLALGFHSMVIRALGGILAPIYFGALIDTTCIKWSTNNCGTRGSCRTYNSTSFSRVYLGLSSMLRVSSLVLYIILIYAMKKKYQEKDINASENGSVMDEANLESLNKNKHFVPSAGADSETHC
Description: For experiments seeking to directly determine if venetoclax is an OATP1B1 substrate, cells overexpressing OATP1B1 or VC were seeded in six-well plates in phenol red-free DMEM containing 10% FBS and doxycycline (1 µg/mL) for 24 h. […] Cells were then immediately lysed with 1 mL of 1 N NaOH for 4 h on an orbital shaker at room temperature to measure total radioactivity. Alternatively, cells were trypsinized with 200 µL of TrypLE (Thermo Fisher Scientific, Waltham, MA, USA) for 3–5 min, rinsed with 800 µL of ice-cold washing buffer, and ProteoExtract Native Membrane Protein Extraction Kits (EMD Millipore, Burlington, MA, USA) were used to separate membrane and intracellular fractions. Dissociated cells were then transferred to 1.5-mL Eppendorf tubes. For measurement of total radioactivity, cells were neutralized with 500 µL of 2 M HCl after 4 h. For measurement of total radioactivity in the membrane or intracellular fraction, cells were isolated following the manufacturer’s protocol, as we have reported previously; this procedure is based on a differential extraction procedure under non-denaturing conditions.

human CYP3A4 = target: T2, human CYP3A4 (Homo sapiens, UniProt P08684); assay: Venetoclax metabolism by human recombinant CYP3A4 supersomes; format: in vitro ADME; settings: 10 µM venetoclax, 40 nM CYP3A4 supersomes, 2 h
T2 construct: purchased Corning 456207
T2 sequence (P08684 whole entry): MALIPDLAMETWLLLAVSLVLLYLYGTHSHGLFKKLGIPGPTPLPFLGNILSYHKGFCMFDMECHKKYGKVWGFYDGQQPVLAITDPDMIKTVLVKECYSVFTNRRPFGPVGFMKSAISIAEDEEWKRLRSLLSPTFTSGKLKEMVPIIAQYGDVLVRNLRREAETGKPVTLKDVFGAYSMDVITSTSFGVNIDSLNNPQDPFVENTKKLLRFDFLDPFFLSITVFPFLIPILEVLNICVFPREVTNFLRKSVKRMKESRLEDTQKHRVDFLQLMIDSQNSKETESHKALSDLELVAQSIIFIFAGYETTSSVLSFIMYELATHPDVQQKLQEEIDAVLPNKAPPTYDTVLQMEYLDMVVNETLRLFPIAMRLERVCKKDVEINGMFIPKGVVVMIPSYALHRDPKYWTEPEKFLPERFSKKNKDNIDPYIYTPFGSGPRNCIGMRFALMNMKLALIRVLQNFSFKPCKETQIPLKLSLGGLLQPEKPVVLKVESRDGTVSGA
Description: The ability of human CYP3A4 to metabolize venetoclax was assessed using human CYP3A4 supersomes using standard procedures. Reactions were performed in a volume of 100 µL. […] The mixture was preincubated for 5 min at 37 °C before initiating the reaction by the addition of the NADPH regenerating system and incubating at 37 °C with continuous shaking (400 rpm). At 0 h and 2 h, a 20 µL aliquot was mixed with 20 µL methanol to terminate the reaction. The mixture was then vortexed and stored at −80 °C until analysis. Venetoclax was quantified using a validated UHPLC-MS/MS analytical method.

[2] = cited from earlier work
[3] = plasma; cited from earlier work
OATP1B1 [4] = target: T1, OATP1B1; assay: Competitive counterflow assay with 8-acetoxy-trisulfopyrene; format: cell-based; design: expressed in transfected cells
Description: Competitive counterflow assays were performed with 8-acetoxy-trisulfopyrene, an activatable fluorogenic probe for OATP1B1, as described previously. In brief, cells expressing a vector or OATP1B1 were seeded in 96-well opaque plates in phenol-red free DMEM media with 10% FBS and induced with doxycycline for 24 h. On the day of the experiment, the media was removed, and the cells were washed three times with warm PBS. The cells were then incubated for 20 min at 37 °C with 100 µL of 5 µM 8-acetoxypyrene-1,3,6-trisulfonate uptake buffer (ACE; 125 mM NaCl, 4.8 mM KCl, 1.2 mM CaCl2, 1.2 mM KH2PO4, […], 25 mM 2-N-morpholino), ethanesulfonic acid, and 5.6 mM glucose, with the pH adjusted to 5.5). […] The fluorescence was measured at excitation and emission wavelengths of 460 nm and 510 nm, respectively, after 20 min of incubation to control for the number of cells.
The plates were incubated for 20 min at 37 °C. In the final step, the supernatant was removed, and the cells were washed three times with 200 µL ice-cold PBS to stop the reaction. PBS was then removed and 200 µL of 0.1 N NaOH was added to each well to normalize the pH. The fluorescence was measured as described above after another 20 min incubation at room temperature. The levels of cell dye were reported as a percent of the measurement from cells containing ACE alone.

[5] = cited from earlier work; remark: listed apart in the source

CC1(C)CCC(CN2CCN(c3ccc(C(=O)NS(=O)(=O)c4ccc(NCC5CCOCC5)c([N+](=O)[O-])c4)c(Oc4cnc5[nH]ccc5c4)c3)CC2)=C(c2ccc(Cl)cc2)C1 [Venetoclax]
Uptake in the intracellular fraction with overexpression of OATP1B1 versus vector (OATP1B1 [1]; 0.2 µM EβG or 1 µM venetoclax, 15 min): significant increases | Detectable compound associated with the membrane fraction (OATP1B1 [1]; after correction for the intracellular fraction): > 96% | Venetoclax remaining unbound (membrane-binding experiment) (OATP1B1 [1]; in vitro, cells): < 3% | Radioactivity in the membrane fraction relative to the probe substrate EβG (OATP1B1 [1]; membrane fraction, 1 µM venetoclax vs 0.2 µM EβG): > 500 fold | Detected total radioactivity relative to the probe substrate EβG (OATP1B1 [1]; whole cell lysate, cells expressing OATP1B1 or vector, 15 min): > 10 fold | Amount of venetoclax in the reaction in the presence of ketoconazole (human CYP3A4; 10 µM ketoconazole): nearly unchanged | Reduction of the amount of venetoclax in the reaction (human CYP3A4; vehicle (DMSO)): 40% | Reduction of clearance in vivo ([2]; mice with a deficiency of all OATP1A and OATP1B type transporters): 60% | DDI between venetoclax and ketoconazole (increase in venetoclax exposure) ([2]; mice): ~ 3 fold | Protein-bound in plasma [3]: > 99% | Effect on fluorescence (cell dye level) in competitive counterflow (OATP1B1 [4]; 5 µM ACE, venetoclax 200 µM, cyclosporin A 10 µM, paraformaldehyde 0.5%, 20 min): significantly decreased fluorescence | Actual unbound concentration of venetoclax in counterflow experiments (OATP1B1 [4]; nominal concentration 200 µM): < 10 µM | Variation in apparent oral clearance ([5]; at approved doses, patients): ~15 fold | DDI between venetoclax and ketoconazole (increase in venetoclax exposure) ([5]; humans): ~ 6 fold | Increase in systemic exposure to venetoclax with a single dose of rifampin ([5]; humans): 2 fold
